Each block holds one molecule with its values, some of them ahead of it. Activity calls are given as the source filed them. No cut-off for these calls is given here. Bridge positions count the residues as written; N and C are the ends. Peptide text beside a SMILES is read from it. * marks the point of attachment. X2 = NC(=O)CC[C@@H](CN[C@@H](Cc1ccc(O)c(I)c1)C(=O)O)N*; X1 = NC(=O)CC[C@@H](CN[C@@H](Cc1ccc(O)cc1)C(=O)O)N*
Legend:
[1] = target: T1, Melanin-concentrating hormone receptor 1 (Homo sapiens, UniProt Q99705); test: Displacement of[125I]MCH from human MCH1R expressed in CHO cells; format: cell-based
[2] = target: T1, Melanin-concentrating hormone receptor 1; test: Displacement of [35S] 4-(1-(3,4-difluorophenyl)-2-(ethyl(3-(6-fluoro-3H-spiro[isobenzofuran-1,4'-piperidine]-1'-yl)propyl)amino)-2-oxoethyl)-3-oxopiperazine-1-sulfonic acid from human MCH1R
[3] = target: Melanin-concentrating hormone receptor 1 (Mus musculus, UniProt Q8JZL2); test: Displacement of [35S] 4-(1-(3,4-difluorophenyl)-2-(ethyl(3-(6-fluoro-3H-spiro[isobenzofuran-1,4'-piperidine]-1'-yl)propyl)amino)-2-oxoethyl)-3-oxopiperazine-1-sulfonic acid from mouse MCH1R
[4] = target: Melanin-concentrating hormone receptor 2 (Homo sapiens, UniProt Q969V1); test: Displacement of [35S] 4-(1-(3,4-difluorophenyl)-2-(ethyl(3-(6-fluoro-3H-spiro[isobenzofuran-1,4'-piperidine]-1'-yl)propyl)amino)-2-oxoethyl)-3-oxopiperazine-1-sulfonic acid from human MCH2R
[5] = target: T1, Melanin-concentrating hormone receptor 1; test: Binding affinity to human MCH1R expressed in CHO cells by scintillation counting per mg of protein; format: cell-based
[6] = target: Melanin-concentrating hormone receptor 1 (Mus musculus) (UniProt Q8JZL2); test: Binding affinity to MCH1R in wild type mouse coronal slice […] at 500 pM by radioactivity study; details: tested as the 35S-labelled form
[7] = Lipophilicity, log D at pH 7.4; format: physicochemical; details: buffer

T1 sequence (Q99705 whole entry): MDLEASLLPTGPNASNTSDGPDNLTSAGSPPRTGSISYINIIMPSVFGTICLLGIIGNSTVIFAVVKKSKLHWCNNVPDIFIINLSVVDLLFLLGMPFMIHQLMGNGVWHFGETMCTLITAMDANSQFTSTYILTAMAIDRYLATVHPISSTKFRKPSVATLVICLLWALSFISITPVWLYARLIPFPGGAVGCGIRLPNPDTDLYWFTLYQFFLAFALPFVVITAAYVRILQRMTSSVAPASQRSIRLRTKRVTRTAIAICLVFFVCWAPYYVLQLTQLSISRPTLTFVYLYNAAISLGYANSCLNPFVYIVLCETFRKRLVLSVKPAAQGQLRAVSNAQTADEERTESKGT
Chain of Melanin-concentrating hormone receptor 1 (Mus musculus, UniProt Q8JZL2) (Q8JZL2 whole entry): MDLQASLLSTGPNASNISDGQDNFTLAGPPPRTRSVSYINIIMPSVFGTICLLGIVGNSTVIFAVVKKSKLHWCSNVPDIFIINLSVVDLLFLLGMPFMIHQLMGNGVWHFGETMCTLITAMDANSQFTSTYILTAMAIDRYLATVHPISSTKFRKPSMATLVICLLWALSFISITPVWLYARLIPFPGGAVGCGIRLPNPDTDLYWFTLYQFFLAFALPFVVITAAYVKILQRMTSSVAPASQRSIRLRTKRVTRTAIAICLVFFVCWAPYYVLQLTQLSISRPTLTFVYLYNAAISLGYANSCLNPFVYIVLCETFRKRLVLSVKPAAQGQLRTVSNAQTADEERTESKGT
Chain of Melanin-concentrating hormone receptor 2 (Q969V1 whole entry): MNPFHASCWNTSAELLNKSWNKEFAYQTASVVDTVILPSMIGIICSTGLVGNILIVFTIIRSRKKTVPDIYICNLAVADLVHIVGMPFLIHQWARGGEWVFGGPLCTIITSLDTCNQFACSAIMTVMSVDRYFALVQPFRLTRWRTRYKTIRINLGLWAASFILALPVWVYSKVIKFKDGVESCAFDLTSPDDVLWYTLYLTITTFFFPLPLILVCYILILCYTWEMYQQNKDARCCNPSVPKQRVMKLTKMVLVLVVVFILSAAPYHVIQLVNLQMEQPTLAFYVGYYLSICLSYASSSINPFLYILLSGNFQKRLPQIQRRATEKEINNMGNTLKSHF
Chain of Melanin-concentrating hormone receptor 1 (Mus musculus) (Q8JZL2 whole entry): as the sequence (Q8JZL2 whole entry) above

Structure (SMILES): CCN(CCCN1CCC2(CC1)OCc1ccc(F)cc12)C(=O)C(c1ccc(F)c(F)c1)N1CCN(C(=O)OC(C)(C)C)CC1=O (stereo in doubt; 5a)
- IC50 [1]: 0.24 nM

- Ki [2]: 0.034 nM
- Ki [3]: 0.052 nM
- Ki [4]: 1.6 nM
Structure (SMILES): CSCC[C@@H]1NC(=O)[C@@H](NC(=O)[C@H](CCCNC(=N)N)NC(=O)[C@H](CC(C)C)NC(=O)[C@H](CCSC)NC(=O)[C@H](CC(=O)O)NC(=O)[C@H](Cc2ccccc2)NC(=O)[C@@H](N)CC(=O)O)CSSC[C@@H](C(=O)N[C@@H](Cc2c[nH]c3ccccc23)C(=O)N[C@@H](CCC(N)=O)CN[C@@H](Cc2ccc(O)cc2)C(=O)O)NC(=O)[C@@H]2CCCN2C(=O)[C@H](CCCNC(=N)N)NC(=O)[C@H](Cc2ccccc2)NC(=O)[C@H](C(C)C)NC(=O)[C@H](CCCNC(=N)N)NC(=O)CNC(=O)[C@H](CC(C)C)NC1=O (H-DFDMLRCMLGRVFRPCW-X1; disulfide 7-16)

Structure (SMILES): CCN(CCCN1CCC2(CC1)OCc1ccc(F)cc12)C(=O)C(c1ccc(F)c(F)c1)N1CCN(C(=O)OC(C)(C)C)CC1=O (stereo in doubt; 5b)
- IC50 [1]: 145 nM

Structure (SMILES): CCN(CCCN1CCC2(CC1)OCc1ccc(F)cc12)C(=O)C(c1ccc(F)c(F)c1)N1CCCC1=O (centres undefined)
- IC50 [1]: 0.71 nM

Structure (SMILES): CCN(CCCN1CCC2(CC1)OCc1ccc(F)cc12)C(=O)C(c1ccc(F)c(F)c1)N1CCN(S(C)(=O)=O)CC1=O (centres undefined)
- Bmax ([5]; tested as the 35S-labelled form): 23 pmol
- Activity [6]: Active

Structure (SMILES): CSCC[C@@H]1NC(=O)[C@@H](NC(=O)[C@H](CCCNC(=N)N)NC(=O)[C@H](CC(C)C)NC(=O)[C@H](CCSC)NC(=O)[C@H](CC(=O)O)NC(=O)[C@H](Cc2ccccc2)NC(=O)[C@@H](N)CC(=O)O)CSSC[C@@H](C(=O)N[C@@H](Cc2c[nH]c3ccccc23)C(=O)N[C@@H](CCC(N)=O)CN[C@@H](Cc2ccc(O)c(I)c2)C(=O)O)NC(=O)[C@@H]2CCCN2C(=O)[C@H](CCCNC(=N)N)NC(=O)[C@H](Cc2ccccc2)NC(=O)[C@H](C(C)C)NC(=O)[C@H](CCCNC(=N)N)NC(=O)CNC(=O)[C@H](CC(C)C)NC1=O (H-DFDMLRCMLGRVFRPCW-X2; disulfide 7-16)
- Bmax ([5]; tested as the 125I-labelled form): 24 pmol

Structure (SMILES): CCN(CCCN1CCC2(CC1)OCc1ccc(F)cc12)C(=O)C(c1ccc(F)c(F)c1)N1CCN([35S](C)(=O)=O)CC1=O (centres undefined)
- Ki [3]: 0.5 nM
- Ki [4]: > 9700 nM

Structure (SMILES): CCN(CCCN1CCC2(CC1)OCc1ccc(F)cc12)C(=O)C(c1ccc(F)c(F)c1)N1CCNCC1=O (centres undefined)
- IC50 [1]: 0.87 nM

Structure (SMILES): CN(CCCN1CCC2(CC1)OCc1ccccc12)C(=O)C(c1ccc(F)c(F)c1)N1CCCC1=O (centres undefined)
- logD [7]: 2.2
- IC50 [1]: 2.7 nM
